Experimental data: ChEMBL document CHEMBL4334492, “Nectriatide, a Potentiator of Amphotericin B Activity from Nectriaceae sp. BF-0114” (J Nat Prod, 2019)
Converted amounts (≈) assume the structure as drawn. Non-standard residues stand in square brackets, D forms with d. Residues, ends and D or L forms follow the SMILES beside them. *: point of attachment. NMeY = CN[C@@H](Cc1ccc(O)cc1)C(=O)O; 2Abz = Nc1ccccc1C(=O)O; tBu = CC(C)(C)*

Key:
Candida albicans [1] = assay: Potentiation of amphotericin-induced antifungal activity against Candida albicans ATCC 90029 assessed as amphotericin MIC at 8 ug/ml after 24 hrs by broth microdilution method (reference value: 0.5 ug/ml); assay type: functional; conditions: ATCC 90029, 24 h
Candida albicans [2] = assay: Potentiation of amphotericin-induced antifungal activity against Candida albicans ATCC 90029 assessed as fold reduction in amphotericin MIC at 16 ug/ml after 24 hrs by broth microdilution method relative to amphotericin MIC alone; assay type: functional
Candida albicans [3] = assay: Potentiation of amphotericin-induced antifungal activity against Candida albicans ATCC 90029 assessed as amphotericin MIC at 32 ug/ml after 24 hrs by broth microdilution method (reference value: 0.5 ug/ml); assay type: functional; conditions: ATCC 90029, 24 h
Candida albicans [4] = assay: Potentiation of amphotericin-induced antifungal activity against Candida albicans ATCC 90029 assessed as amphotericin MIC at 16 ug/ml after 24 hrs by broth microdilution method (reference value: 0.5 ug/ml); assay type: functional; conditions: ATCC 90029, 24 h
Candida albicans [5] = assay: Potentiation of amphotericin-induced antifungal activity against Candida albicans ATCC 90029 assessed as fold reduction in amphotericin MIC at 8 ug/ml after 24 hrs by broth microdilution method relative to amphotericin MIC alone; assay type: functional
Candida albicans [6] = assay: Potentiation of amphotericin-induced antifungal activity against Candida albicans ATCC 90029 assessed as fold reduction in amphotericin MIC at 32 ug/ml after 24 hrs by broth microdilution method relative to amphotericin MIC alone; assay type: functional
HEK293 = assay: Cytotoxicity against human HEK293 cells assessed as reduction in cell viability after 24 hrs by MTT assay; assay type: cell-based; conditions: HEK293, 24 h

Compound | MIC (Candida albicans [1]) [µg/mL] | Ratio (Candida albicans [2]) | MIC (Candida albicans [3]) [µg/mL] | MIC (Candida albicans [4]) [µg/mL] | Ratio (Candida albicans [5]) | Ratio (Candida albicans [6]) | IC50 (HEK293) [µg/mL]
CC(C)[C@H](NC(=O)[C@H](C)NC(=O)c1ccccc1N)C(=O)N(C)[C@@H](Cc1ccc(OC(C)(C)C)cc1)C(=O)O (H-[2Abz]AV[NMeY](tBu)-OH) | 0.25 | 4 | 0.13 | 0.13 | 2 | 4 | –
Nc1ccccc1C(=O)O [ANTHRANILIC ACID] | – | – | 0.5 | – | – | 1 | –
C[C@H](NC(=O)c1ccccc1N)C(=O)O | – | – | 0.13 | – | – | 4 | –
CN[C@@H](Cc1ccc(OC(C)(C)C)cc1)C(=O)Nc1ccccc1C(=O)N[C@@H](C)C(=O)O | – | – | 0.25 | – | – | 2 | –
C[C@@H]1[C@H](O)[C@@H](C)/C=C/C=C/C=C/C=C/C=C/C=C/C=C/[C@H](O[C@@H]2O[C@H](C)[C@@H](O)[C@H](N)[C@@H]2O)C[C@@H]2O[C@](O)(C[C@@H](O)C[C@@H](O)[C@H](O)CC[C@@H](O)C[C@@H](O)CC(=O)O[C@H]1C)C[C@H](O)[C@H]2C(=O)O [AMPHOTERICIN B] | – | – | – | – | – | – | 15 (≈ 16.2 µM)
CC(C)[C@@H]1NC(=O)[C@H](C)NC(=O)c2ccccc2NC(=O)[C@H](Cc2ccc(OC(C)(C)C)cc2)N(C)C1=O (cyclo([2Abz]AV[NMeY](tBu))) | 0.13 | 8 | 0.031 | 0.063 | 4 | 16 | –
